In PMC10373420, “A high-throughput screening system for SARS-CoV-2 entry inhibition, syncytia formation and cell toxicity” (Biological Procedures Online, 2023):
“Also recorded” adds a separate entry of the source. Where a name gives a salt, the structure may show the parent alone. Read-outs that look alike come from different tables or passages of the source. Numbered stars: 1 amine (or outer) side, 2 acyl side, 3 side chain; on linkers, the order of the positions; unused ones are H or OH. Bridge positions count the residues as written; N and C are the ends. Square brackets hold non-standard residues; d marks the D form. Peptide text beside a SMILES is read from it. I, II: the chains in the order shown. Actinocin(9to1) = Cc1c2oc3c(C)ccc(C(=O)[*:1])c3nc-2c(C(=O)[*:2])c(N)c1=O; NMeV = CN[C@H](C(=O)O)C(C)C; Sar = CNCC(=O)O

Legend:
[1] = test system: ACE2-Spike dependent syncytia formation; format: cell-based, human; details: IC50 concentration; for initiation of pseudoviral infection: control 7 hpi; for initiation of syncytia formation: imaging up to 24 hpi, control 12 hpi
[2] = test system: SiHa ACE2 Cerulean H2B mCherry cells
VSV-eGFP-SARS-CoV-2 [3] = experiment: microbe, parasite or virus in culture; format: cell-based; details: for IC50: read-out: IC50 against VSV-eGFP-SARS-CoV-2 infection; for inhibition at 5 µM: read-out: inhibition of VSV-eGFP-SARS-CoV-2 infection, 5 μM; for inhibition at 10 µM: read-out: inhibition of VSV-eGFP-SARS-CoV-2 infection, 10 μM; for inhibition at 1 µM: read-out: inhibition of VSV-eGFP-SARS-CoV-2 infection, 1 μM
rVSV-G-GFP = format: cell-based, vesicular stomatitis virus (VSV)
VSV-eGFP-SARS-CoV-2 [4] = format: cell-based; details: 1 μM
[5] = Severe acute respiratory syndrome coronavirus 2, SiHa

Compound | initiation of pseudoviral infection [1] [hpi] | initiation of syncytia formation [1] | inhibition at 5 µM (VSV-eGFP-SARS-CoV-2 [3]; [5]) [%] | inhibition at 10 µM (VSV-eGFP-SARS-CoV-2 [3]; [5]) [%] | rVSV-G-GFP infection inhibition (in words) (rVSV-G-GFP) | inhibition at 1 µM (VSV-eGFP-SARS-CoV-2 [3]; [5]) [%] | also measured
COC1=C(N)C(=O)c2nc(-c3nc(C(=O)O)c(C)c(-c4ccc(OC)c(OC)c4O)c3N)ccc2C1=O [Streptonigrin] | 8 | 12 hpi | 100 | 100 | could inhibit the VSVG infection; also recorded: rVSV-G-GFP inhibition | – | toxicity at IC50 dose [2]: minimum toxicity; IC50 (VSV-eGFP-SARS-CoV-2 [3]; [5]): 380 nM
CC(=O)O[C@H]1C[C@H](O[C@H]2[C@@H](O)C[C@H](O[C@H]3[C@@H](O)C[C@H](OC4CC[C@@]5(C)[C@H](CC[C@@H]6[C@@H]5CC[C@]5(C)[C@@H](C7=CC(=O)OC7)CC[C@]65O)C4)O[C@@H]3C)O[C@@H]2C)O[C@H](C)[C@H]1O[C@@H]1O[C@H](CO)[C@@H](O)[C@H](O)[C@H]1O (some centres unmarked) [Lanatoside A] | – | – | 97 | 98 | – | 81 | –
CC1=C2C(=CC(C)(C)[C@@H]2O)C(=O)[C@](C)(O)C12CC2 [Illudin M] | – | – | 54 | 73 | – | 31 | –
C[C@@H]1O[C@@H](O[C@@H]2C=C3CC[C@@H]4[C@H](CC[C@]5(C)[C@@H](c6ccc(=O)oc6)CC[C@]45O)[C@@]3(C)CC2)[C@H](O)[C@H](O)[C@H]1O[C@@H]1O[C@H](CO)[C@@H](O)[C@H](O)[C@H]1O [Scillaren A] | 8 | 22 hpi | – | – | moderate level of inhibition | – | IC50 (VSV-eGFP-SARS-CoV-2 [3]): 410 nM
CC(=O)O[C@@]1(C)C[C@@H]([C@H](O)CC2CC(=O)NC(=O)C2)C(=O)[C@@H](C)C1 [Acetoxycycloheximide] | 10 | 21 hpi | 100 | 100 | moderate level of inhibition | – | IC50 (VSV-eGFP-SARS-CoV-2 [3]; [5]): 640 nM
Cc1c2oc3c(C)ccc(C(=O)N[C@@H]4C(=O)N[C@H](C(C)C)C(=O)N5CCC[C@H]5C(=O)N(C)CC(=O)N(C)[C@@H](C(C)C)C(=O)O[C@@H]4C)c3nc-2c(C(=O)N[C@@H]2C(=O)N[C@H](C(C)C)C(=O)N3CCC[C@H]3C(=O)N(C)CC(=O)N(C)[C@@H](C(C)C)C(=O)O[C@@H]2C)c(N)c1=O [Dactinomycin, reference compound] (I: T[dV]P[Sar][NMeV] / II: T[dV]P[Sar][NMeV]; ester I:1-I:C, II:1-II:C; linker I:N-II:N via Actinocin(9to1)) | – | – | 56 | 58 | – | 39 | –
CSC[S@+]([O-])C[C@H](CO)NC(=O)/C=C/c1c(C)[nH]c(=O)[nH]c1=O [Sparsomycin] | – | – | 80 | 94 | – | -2 | –
C[C@H](N)C(=O)N[C@@H]1[C@H]2C(=C(O)C[C@@H](O)[C@@H]2O)C(=O)O[C@]1(C)C(Cl)Cl [Bactobolin] | – | – | 99 | 100 | – | 56 | –
COc1ccc(/C=C/C(=O)c2ccccc2)cc1 [4-Methoxychalcone, reference compound] | – | – | -7 | 26 | – | -11 | –
CCCCCC1=C/C(=C/c2[nH]c(-c3ccc[nH]3)cc2OC)N=C1C [Prodigiosin] | – | – | 98 | 100 | – | 86 | –
C[C@H]1CCC/C=C/[C@@H]2C[C@H](O)C[C@H]2[C@H](O)/C=C/C(=O)O1 [Brefeldin A] | – | – | 82 | 86 | – | 66 | –
CC[C@]1(O)C[C@H]2CN(CCc3c([nH]c4ccccc34)[C@@](C(=O)OC)(c3cc4c(cc3OC)N(C=O)[C@H]3[C@@](O)(C(=O)OC)[C@H](OC(C)=O)[C@]5(CC)C=CCN6CC[C@]43[C@@H]65)C2)C1 [Vincristine sulfate, reference compound] | – | – | 38 | 39 | – | 32 | –
COc1cccc2c1C(=O)c1c(O)c3c(c(O)c1C2=O)C[C@@](O)(C(C)=O)C[C@@H]3O[C@H]1C[C@H](N)[C@H](O)[C@H](C)O1 [Daunorubicin hydrochloride, reference compound] | – | – | 40 | 41 | – | -16 | –
CC(=O)O[C@H]1C[C@H](O[C@H]2[C@@H](O)C[C@H](O[C@H]3[C@@H](O)C[C@H](O[C@H]4CC[C@@]5(C)[C@H](CC[C@@H]6[C@@H]5C[C@@H](O)[C@]5(C)[C@@H](C7=CC(=O)OC7)CC[C@]65O)C4)O[C@@H]3C)O[C@@H]2C)O[C@H](C)[C@H]1O[C@@H]1O[C@H](CO)[C@@H](O)[C@H](O)[C@H]1O [Allocor] | – | – | 89 | 92 | – | 49 | –
Casirivimab | – | – | – | – | – | – | inhibition of VSV-eGFP-SARS-CoV-2 infection (in words) (VSV-eGFP-SARS-CoV-2 [3]): inhibition of VSV-eGFP-SARS-CoV-2 infection; IC50 (VSV-eGFP-SARS-CoV-2 [3]): 0.045 nM
CO[C@H]1/C=C\C=C(/C)C(=O)NC2=CC(=O)C(N)=C(C[C@@H](C)C[C@H](OC)[C@H](O)[C@@H](C)/C=C(\C)[C@@H]1OC(N)=O)C2=O [17-Aminodemethoxygeldanamycin] | 8 | 12 hpi | – | – | moderate inhibition | – | IC50 (VSV-eGFP-SARS-CoV-2 [3]): 560 nM; inhibition of VSV-eGFP-SARS-CoV-2 infection after pre-treatment of cells (VSV-eGFP-SARS-CoV-2 [4]): 50%; inhibitory activity after preincubation of cells with natural product (in words) (VSV-eGFP-SARS-CoV-2 [4]): having inhibitory activity; also recorded: moderate level of viral entry inhibition
CC[C@H](C)[C@H]1NC(=O)[C@@H](NC(=O)[C@@H](CC(C)C)N(C)C(=O)[C@@H]2CCCN2C(=O)C(C)O)[C@@H](C)OC(=O)[C@H](Cc2ccc(OC)cc2)N(C)C(=O)[C@@H]2CCCN2C(=O)[C@H](CC(C)C)NC(=O)[C@@H](C)C(=O)[C@H](C(C)C)OC(=O)C[C@@H]1O (some centres unmarked) [Didemnin B] | 8 | no syncytia was observed | 100 | 100 | could inhibit the VSVG infection; also recorded: rVSV-G-GFP inhibition | – | initiation of syncytia formation ([1]; listed as Didemin B): inhibits syncytia formation; cellular toxicity (H2B mCherry nuclear condensation) [2]: exhibited toxicity at higher doses; toxicity at IC50 dose [2]: minimum toxicity; IC50 (VSV-eGFP-SARS-CoV-2 [3]; [5]): 190 nM; inhibitory activity after preincubation of cells with natural product (in words) (VSV-eGFP-SARS-CoV-2 [4]): having inhibitory activity; also recorded: could inhibit viral infection
CC[C@](C)(O)C(=O)O[C@H]1C(=O)O[C@@H]2C[C@H]3C(C)=C[C@H](O)[C@@H](O)[C@]3(C)[C@H]3[C@]4(O)OC[C@]32[C@@H]1[C@@H](C)[C@H]4O [Glaucarubin] | – | – | -1 | 33 | – | -7 | –
C[C@@H]1O[C@@H](O[C@@H]2C=C3CC[C@@H]4[C@H](CC[C@]5(C)[C@@H](c6ccc(=O)oc6)CC[C@]45O)[C@@]3(C)CC2)[C@H](O)[C@H](O)[C@H]1O [Proscillaridin, reference compound] | 8 | 16 hpi | 98 | 99 | moderate inhibition | – | IC50 (VSV-eGFP-SARS-CoV-2 [3]; [5]): 220 nM
